Assay results reported in patent publication US20080009511A1, “Cancer treatment with compounds inhibiting PKC alpha” (priority 2004, published 2008).

Experiments:
KB oral cancer cells = test: Cell viability assay (trypan blue dye exclusion), viable cells counted at day 6; assay type: cell-based, human; conditions: 10 micromoles
Method: (§1) The following cancer cells were maintained in Dulbecco's modified Eagle medium (DMEM) supplemented with 10 percent bovine calf serum. Cells were seeded for 24 hours. Then they were treated with PKC inhibitors or left untreated. The cells were then collected periodically and evaluated using trypan blue dye exclusion to assess viability using the method described by C Y Chen, et al., in J. Biol. Chem. 273:16700-16709. Cultures containing about 4×10^4 cells were treated with 5 micromoles of Gö7874 (except that PC3 prostate cancer cells were treated with 10 micromoles) and the viable cells were counted at day 6. […] Cultures containing about 4×10^4 cells were treated with or without 10 micromoles of Gö6850 and the viable cells were counted at day 6. […] Cultures containing about 4×10^4 cells were treated with or without 10 micromoles of NGIC-I and the viable cells were counted at day 6. […] Cultures containing about 4×10^4 cells were treated with or without 10 micromoles of Ro31-7549 and the viable cells were counted at day 6. […] Cultures containing about 4×10^4 cells were treated with or without 10 micromoles of Ro31-8220 and the viable cells were counted at day 6. […] Cultures containing about 4×10^4 cells were treated with or without 10 micromoles of Ro31-8425 and the viable cells were counted at day 6. […] Cultures containing about 4×10^4 cells were treated with or without 10 micromoles of Ro31-0432 and the viable cells were counted at day 6.

[1] = system: MDA-MB-468 human breast cancer cells; test: as above; assay type: cell-based; conditions: 10 micromoles
Method: as §1

[2] = system: Jurkat cells (a human acute T-cell leukemia cell line); test: as above; assay type: cell-based; conditions: 10 micromoles
Method: as §1

[3] = system: H460 human lung cancer cells; test: as above; assay type: cell-based; conditions: 10 micromoles
Method: as §1

[4] = system: A431 human epidermoid carcinoma cells; test: as above; assay type: cell-based; conditions: 10 micromoles
Method: as §1

U251 human glioma cells = test: as above; assay type: cell-based; conditions: 10 micromoles
Method: as §1

[5] = system: PANC-1 human pancreatic carcinoma cells; test: as above; assay type: cell-based; conditions: 10 micromoles
Method: as §1

[6] = system: Hela human cervical cancer cells; test: as above; assay type: cell-based; conditions: 10 micromoles
Method: as §1

[7] = system: HepG2 human liver cancer cells; test: as above; assay type: cell-based; conditions: 10 micromoles
Method: as §1

[8] = system: HT29 human colon cancer cells; test: as above; assay type: cell-based; conditions: 10 micromoles
Method: as §1

[9] = system: PC3 human prostate cancer cells; test: as above; assay type: cell-based; conditions: 10 micromoles
Method: as §1

[10] = system: NBT-II human bladder cancer cells; test: as above; assay type: cell-based; conditions: 10 micromoles
Method: as §1

[11] = system: AGS human gastric cancer cells; test: as above; assay type: cell-based; conditions: 10 micromoles
Method: as §1

[12] = system: 3Y1 rat fibroblast cells overexpressing the epidermal growth factor receptor (EGFR); test: Soft agar/cell transformation assay; assay type: cell-based; conditions: 1 micromole with EGF (100 ng/ml), in contrast to EGF alone
From the text: 1×10^3 3Y1 rat fibroblast cells overexpressing the epidermal growth factor receptor (EGFR) were suspended in top agar (consisting of 20 percent calf serum, 0.38 percent agar and the remainder DMEM) and overlaid onto bottom agar (DMEM, 20 percent calf serum and 0.7 percent agar) as reported by Sementchenko et al., in Onocgen 17:2883-2888.

human cancer cells = test: Cell viability assay, summary over the panel of cancer cells; assay type: cell-based; conditions: 10 micromoles; day 6; cell lines not named as going to apoptosis
Method: The following cancer cells were maintained in Dulbecco's modified Eagle medium (DMEM) supplemented with 10 percent bovine calf serum. Cells were seeded for 24 hours. Then they were treated with PKC inhibitors or left untreated. The cells were then collected periodically and evaluated using trypan blue dye exclusion to assess viability using the method described by C Y Chen, et al., in J. Biol. Chem. 273:16700-16709. Cultures containing about 4×10^4 cells were treated with or without 10 micromoles of Gö6850 and the viable cells were counted at day 6. […] Cultures containing about 4×10^4 cells were treated with or without 10 micromoles of NGIC-I and the viable cells were counted at day 6. […] Cultures containing about 4×10^4 cells were treated with or without 10 micromoles of Ro31-7549 and the viable cells were counted at day 6. […] Cultures containing about 4×10^4 cells were treated with or without 10 micromoles of Ro31-8220 and the viable cells were counted at day 6. […] Cultures containing about 4×10^4 cells were treated with or without 10 micromoles of Ro31-8425 and the viable cells were counted at day 6. […] Cultures containing about 4×10^4 cells were treated with or without 10 micromoles of Ro31-0432 and the viable cells were counted at day 6.

[13] = system: 3Y1 rat fibroblast cells overexpressing EGF receptors (3Y1-EGFR cells); test: EGF-induced cell transformation (transformed morphology); assay type: cell-based; conditions: 1 micromole
[14] = about 4×10^4 cells seeded, untreated 3.8 ± 0.4

SMILES: Cl.Cn1cc(C2=C(c3c4n(c5ccccc35)CCC(CN)C4)C(=O)NC2=O)c2ccccc21 (centres unmarked) [Ro31-8425]
- cells that went to apoptosis upon treatment (KB oral cancer cells): all
- Treated (cell number × 10^5) (KB oral cancer cells; [14]): 0 × 10^5
- % inhibiton (KB oral cancer cells; growth vs untreated): * (indicates the inhibitor causes significant cell death, and cell number is less than originally seeded cell number.)
- cells that went to apoptosis upon treatment [1]: significant number
- Treated (cell number × 10^5) ([1]; about 4×10^4 cells seeded, untreated 6.1 ± 0.4): 0.1 ± 0.05 × 10^5
- % inhibiton ([1]; growth vs untreated): * (indicates the inhibitor causes significant cell death, and cell number is less than originally seeded cell number.)
- cells that went to apoptosis upon treatment [2]: significant number
- Treated (cell number × 10^5) ([2]; about 4×10^4 cells seeded, untreated 8.8 ± 0.4): 0.3 × 10^5
- % inhibiton ([2]; growth vs untreated): * (indicates the inhibitor causes significant cell death, and cell number is less than originally seeded cell number.)
- cells that went to apoptosis upon treatment [3]: all
- Treated (cell number × 10^5) ([3]; about 4×10^4 cells seeded, untreated 2.4 ± 0.2): 0 × 10^5
- % inhibiton ([3]; growth vs untreated): * (indicates the inhibitor causes significant cell death, and cell number is less than originally seeded cell number.)
- Treated (cell number × 10^5) ([4]; about 4×10^4 cells seeded, untreated 5.4 ± 0.4): 2.6 × 10^5
- % inhibiton ([4]; growth vs untreated): 52%
- Treated (cell number × 10^5) (U251 human glioma cells; about 4×10^4 cells seeded, untreated 9.6 ± 0.5): 1.4 × 10^5
- % inhibiton (U251 human glioma cells; growth vs untreated): 85%
- cells that went to apoptosis upon treatment [5]: all
- Treated (cell number × 10^5) ([5]; about 4×10^4 cells seeded, untreated 2.1 ± 0.3): 0 × 10^5
- % inhibiton ([5]; growth vs untreated): * (indicates the inhibitor causes significant cell death, and cell number is less than originally seeded cell number.)
- cells that went to apoptosis upon treatment [6]: all
- Treated (cell number × 10^5) ([6]; about 4×10^4 cells seeded, untreated 3.4 ± 0.4): 0 × 10^5
- % inhibiton ([6]; growth vs untreated): * (indicates the inhibitor causes significant cell death, and cell number is less than originally seeded cell number.)
- Treated (cell number × 10^5) ([7]; about 4×10^4 cells seeded, untreated 4.2 ± 0.4): 0.4 × 10^5
- % inhibiton ([7]; growth vs untreated): 90%
- Treated (cell number × 10^5) [8, 14]: 0.6 × 10^5
- % inhibiton ([8]; growth vs untreated): 85%
- Treated (cell number × 10^5) ([9]; about 4×10^4 cells seeded, untreated 7.1 ± 0.3): 3 × 10^5
- % inhibiton ([9]; growth vs untreated): 53%
- cells that went to apoptosis upon treatment [10]: significant number
- Treated (cell number × 10^5) ([10]; about 4×10^4 cells seeded, untreated 2.9 ± 0.4): 0.3 × 10^5
- % inhibiton ([10]; growth vs untreated): * (indicates the inhibitor causes significant cell death, and cell number is less than originally seeded cell number.)
- cells that went to apoptosis upon treatment [11]: all
- Treated (cell number × 10^5) ([11]; about 4×10^4 cells seeded, untreated 2.4 ± 0.3): 0 × 10^5
- % inhibiton ([11]; growth vs untreated): * (indicates the inhibitor causes significant cell death, and cell number is less than originally seeded cell number.)
- reduction of colony number in soft agar [12]: 72%
- inhibition of growth in contrast to untreated cells, range over the other treated cancer cells (human cancer cells): 52-90%
- cell apoptosis during co-treatment ([13]; co-treatment with 100 ng/ml EGF): without detected cell apoptosis
- effect on EGF-induced transformed morphology ([13]; co-treatment with 100 ng/ml EGF for 48 hours): partially blocked
